# Results published in ChEMBL document CHEMBL3885881, “DrugMatrix”.
# Organism: Rattus norvegicus
# Test: DrugMatrix - Regimen: Daily Repeat
# Assay type: toxicity, organism-based, Sprague-Dawley
# Design: regimen Daily Repeat, gender Male, age 6-8 weeks
# Settings: in vivo, po, route oral GAVAGE, vehicle .5 % CMC; for ABSOLUTE BASOPHIL / ABSOLUTE EOSINOPHIL / ABSOLUTE LYMPHOCYTE / ABSOLUTE MONOCYTE / ABSOLUTE SEGMENTED NEUTROPHIL / BASOPHIL / EOSINOPHIL / ERYTHROCYTE COUNT / HEMATOCRIT / HEMOGLOBIN / LEUKOCYTE COUNT / LYMPHOCYTE / MEAN CORPUSCULAR HEMOGLOBIN / MEAN CORPUSCULAR HEMOGLOBIN CONCENTRATION / MEAN CORPUSCULAR VOLUME / MONOCYTE / NEUTROPHIL / NUCLEATED RED BLOOD CELLS / PLATELET COUNT: tissue Blood; for ALANINE AMINOTRANSFERASE / ALBUMIN / ALKALINE PHOSPHATASE / ASPARTATE AMINOTRANSFERASE / BLOOD UREA NITROGEN / CARBON DIOXIDE / CHLORIDE / CHOLESTEROL / CREATINE PHOSPHOKINASE / CREATININE / GLUCOSE / LACTATE DEHYDROGENASE / LIPASE / PHOSPHORUS / POTASSIUM / SODIUM / TOTAL BILIRUBIN / TOTAL PROTEIN / URIC ACID: tissue Plasma
# [1] = 30 mg/kg, 72 h, dose level Low, time 3 day
# [2] = 30 mg/kg, 120 h, dose level Low, time 5 day
# [3] = 600 mg/kg, 72 h, dose level High, time 3 day
# [4] = 600 mg/kg, 120 h, dose level High, time 5 day
compound,measurement,setting,value
Cc1c(OCC(F)(F)F)ccnc1C[S+]([O-])c1nc2ccccc2[nH]1 (configuration not stated) [LANSOPRAZOLE],ABSOLUTE BASOPHIL,[1],0 CELLS/uL
same,ABSOLUTE EOSINOPHIL,[1],38 CELLS/uL
same,ABSOLUTE LYMPHOCYTE,[1],11302.33 CELLS/uL
same,ABSOLUTE MONOCYTE,[1],38 CELLS/uL
same,ABSOLUTE SEGMENTED NEUTROPHIL,[1],588.33 CELLS/uL
same,BASOPHIL,[1],0%
same,EOSINOPHIL,[1],0.33%
same,ERYTHROCYTE COUNT,[1],5.49 x10E6/uL
same,HEMATOCRIT,[1],34.33%
same,HEMOGLOBIN,[1],12.9 G/DL
same,LEUKOCYTE COUNT,[1],11.97 x10E3/uL
same,LYMPHOCYTE,[1],94.33%
same,MEAN CORPUSCULAR HEMOGLOBIN,[1],23.47 pg
same,MEAN CORPUSCULAR HEMOGLOBIN CONCENTRATION,[1],37.53 G/DL
same,MEAN CORPUSCULAR VOLUME,[1],62.53 fL
same,MONOCYTE,[1],0.33%
same,NEUTROPHIL,[1],5%
same,NUCLEATED RED BLOOD CELLS,[1],0 /100WBC
same,PLATELET COUNT,[1],1374 x10E3/uL
same,ALANINE AMINOTRANSFERASE,[1],48.67 u/L
same,ALBUMIN,[1],4.03 G/DL
same,ALKALINE PHOSPHATASE,[1],333 u/L
same,ASPARTATE AMINOTRANSFERASE,[1],84.33 u/L
same,BLOOD UREA NITROGEN,[1],13.67 mg/dL
same,CARBON DIOXIDE,[1],25.33 mmol/L
same,CHLORIDE,[1],103 MEQ/L
same,CHOLESTEROL,[1],81.33 mg/dL
same,CREATINE PHOSPHOKINASE,[1],302.33 u/L
same,CREATININE,[1],0.28 mg/dL
same,GLUCOSE,[1],162 mg/dL
same,LACTATE DEHYDROGENASE,[1],455.33 u/L
same,LIPASE,[1],12 u/L
same,PHOSPHORUS,[1],14.17 mg/dL
same,POTASSIUM,[1],6.71 MEQ/L
same,SODIUM,[1],146.4 MEQ/L
same,TOTAL BILIRUBIN,[1],0.17 mg/dL
same,TOTAL PROTEIN,[1],5.57 G/DL
same,URIC ACID,[1],1.93 mg/dL
same,ABSOLUTE BASOPHIL,[2],0 CELLS/uL
same,ABSOLUTE EOSINOPHIL,[2],0 CELLS/uL
same,ABSOLUTE LYMPHOCYTE,[2],12566 CELLS/uL
same,ABSOLUTE MONOCYTE,[2],465.33 CELLS/uL
same,ABSOLUTE SEGMENTED NEUTROPHIL,[2],1302 CELLS/uL
same,BASOPHIL,[2],0%
same,EOSINOPHIL,[2],0%
same,ERYTHROCYTE COUNT,[2],5.54 x10E6/uL
same,HEMATOCRIT,[2],36.83%
same,HEMOGLOBIN,[2],13.67 G/DL
same,LEUKOCYTE COUNT,[2],14.33 x10E3/uL
same,LYMPHOCYTE,[2],87.67%
same,MEAN CORPUSCULAR HEMOGLOBIN,[2],24.73 pg
same,MEAN CORPUSCULAR HEMOGLOBIN CONCENTRATION,[2],37.17 G/DL
same,MEAN CORPUSCULAR VOLUME,[2],66.5 fL
same,MONOCYTE,[2],3.33%
same,NEUTROPHIL,[2],9%
same,NUCLEATED RED BLOOD CELLS,[2],0 /100WBC
same,PLATELET COUNT,[2],1375.67 x10E3/uL
same,ALANINE AMINOTRANSFERASE,[2],52.33 u/L
same,ALBUMIN,[2],4.3 G/DL
same,ALKALINE PHOSPHATASE,[2],288.67 u/L
same,ASPARTATE AMINOTRANSFERASE,[2],81 u/L
same,BLOOD UREA NITROGEN,[2],16.33 mg/dL
same,CARBON DIOXIDE,[2],22.33 mmol/L
same,CHLORIDE,[2],103.67 MEQ/L
same,CHOLESTEROL,[2],82 mg/dL
same,CREATINE PHOSPHOKINASE,[2],222.67 u/L
same,CREATININE,[2],0.33 mg/dL
same,GLUCOSE,[2],147 mg/dL
same,LACTATE DEHYDROGENASE,[2],157.67 u/L
same,LIPASE,[2],13 u/L
same,PHOSPHORUS,[2],12.33 mg/dL
same,POTASSIUM,[2],7.1 MEQ/L
same,SODIUM,[2],147.6 MEQ/L
same,TOTAL BILIRUBIN,[2],0.2 mg/dL
same,TOTAL PROTEIN,[2],6.07 G/DL
same,URIC ACID,[2],1.6 mg/dL
same,ABSOLUTE BASOPHIL,[3],0 CELLS/uL
same,ABSOLUTE EOSINOPHIL,[3],0 CELLS/uL
same,ABSOLUTE LYMPHOCYTE,[3],13053.67 CELLS/uL
same,ABSOLUTE MONOCYTE,[3],222.67 CELLS/uL
same,ABSOLUTE SEGMENTED NEUTROPHIL,[3],690.33 CELLS/uL
same,BASOPHIL,[3],0%
same,EOSINOPHIL,[3],0%
same,ERYTHROCYTE COUNT,[3],5.81 x10E6/uL
same,HEMATOCRIT,[3],37.37%
same,HEMOGLOBIN,[3],13.57 G/DL
same,LEUKOCYTE COUNT,[3],13.97 x10E3/uL
same,LYMPHOCYTE,[3],93.67%
same,MEAN CORPUSCULAR HEMOGLOBIN,[3],23.33 pg
same,MEAN CORPUSCULAR HEMOGLOBIN CONCENTRATION,[3],36.3 G/DL
same,MEAN CORPUSCULAR VOLUME,[3],64.3 fL
same,MONOCYTE,[3],1.33%
same,NEUTROPHIL,[3],5%
same,NUCLEATED RED BLOOD CELLS,[3],0.33 /100WBC
same,PLATELET COUNT,[3],1408 x10E3/uL
same,ALANINE AMINOTRANSFERASE,[3],39 u/L
same,ALBUMIN,[3],4.1 G/DL
same,ALKALINE PHOSPHATASE,[3],387.33 u/L
same,ASPARTATE AMINOTRANSFERASE,[3],76.67 u/L
same,BLOOD UREA NITROGEN,[3],16.33 mg/dL
same,CARBON DIOXIDE,[3],28 mmol/L
same,CHLORIDE,[3],104.67 MEQ/L
same,CHOLESTEROL,[3],55.33 mg/dL
same,CREATINE PHOSPHOKINASE,[3],222 u/L
same,CREATININE,[3],0.18 mg/dL
same,GLUCOSE,[3],159 mg/dL
same,LACTATE DEHYDROGENASE,[3],91.33 u/L
same,LIPASE,[3],9.67 u/L
same,PHOSPHORUS,[3],12.23 mg/dL
same,POTASSIUM,[3],6.7 MEQ/L
same,SODIUM,[3],147.6 MEQ/L
same,TOTAL BILIRUBIN,[3],0.13 mg/dL
same,TOTAL PROTEIN,[3],5.53 G/DL
same,URIC ACID,[3],1.8 mg/dL
same,ABSOLUTE BASOPHIL,[4],0 CELLS/uL
same,ABSOLUTE EOSINOPHIL,[4],0 CELLS/uL
same,ABSOLUTE LYMPHOCYTE,[4],15467 CELLS/uL
same,ABSOLUTE MONOCYTE,[4],599 CELLS/uL
same,ABSOLUTE SEGMENTED NEUTROPHIL,[4],1467.33 CELLS/uL
same,BASOPHIL,[4],0%
same,EOSINOPHIL,[4],0%
same,ERYTHROCYTE COUNT,[4],5.82 x10E6/uL
same,HEMATOCRIT,[4],35.9%
same,HEMOGLOBIN,[4],13.57 G/DL
same,LEUKOCYTE COUNT,[4],17.53 x10E3/uL
same,LYMPHOCYTE,[4],87.67%
same,MEAN CORPUSCULAR HEMOGLOBIN,[4],23.33 pg
same,MEAN CORPUSCULAR HEMOGLOBIN CONCENTRATION,[4],37.8 G/DL
same,MEAN CORPUSCULAR VOLUME,[4],61.7 fL
same,MONOCYTE,[4],3.33%
same,NEUTROPHIL,[4],9%
same,NUCLEATED RED BLOOD CELLS,[4],0.33 /100WBC
same,PLATELET COUNT,[4],1179.67 x10E3/uL
same,ALANINE AMINOTRANSFERASE,[4],36 u/L
same,ALBUMIN,[4],3.93 G/DL
same,ALKALINE PHOSPHATASE,[4],272.33 u/L
same,ASPARTATE AMINOTRANSFERASE,[4],83.33 u/L
same,BLOOD UREA NITROGEN,[4],16.67 mg/dL
same,CARBON DIOXIDE,[4],28.33 mmol/L
same,CHLORIDE,[4],106 MEQ/L
same,CHOLESTEROL,[4],51.33 mg/dL
same,CREATINE PHOSPHOKINASE,[4],144.33 u/L
same,CREATININE,[4],0.17 mg/dL
same,GLUCOSE,[4],138.67 mg/dL
same,LACTATE DEHYDROGENASE,[4],71 u/L
same,LIPASE,[4],10.67 u/L
same,PHOSPHORUS,[4],10.43 mg/dL
same,POTASSIUM,[4],6.81 MEQ/L
same,SODIUM,[4],148.63 MEQ/L
same,TOTAL BILIRUBIN,[4],0.17 mg/dL
same,TOTAL PROTEIN,[4],5.73 G/DL
same,URIC ACID,[4],1.27 mg/dL
